Assay results taken from patent US20220280594A1, “APPLICATION OF POLYPEPTIDE OR DERIVATIVE THEREOF” (CHENGDU HUITAI BIOMEDICINE CO., LTD., priority 2019, published 2022).
Ends that are not written are not given here. PEG = not defined here

Test system: N-cadherin
Experiment: N-cadherin expression in SK-HEP-1 cells (ELISA)
Type: cell-based, human
Details: SK-HEP-1, 10 μM, 24 hours, control group 1.12 ± 0.03
Procedure: SK-HEP-1 cells were cultured in vitro, cells in the logarithmic growth phase were collected, and the cells were seeded evenly in a 24-well plate at a density of 1-3×10^5 cells/well. The cells were cultured in a cell incubator for 4-5 h. PBS was added to the control group. PBS containing polypeptide or derivative thereof (N1-N12) was added to the treatment group. The final concentration of the polypeptide or derivative thereof in the well was 10 μM. After incubating for 24 hours, the cells were collected and the total protein was extracted. ELISA was used to detect the content of fibronectin in total protein.
The experimental method for testing the inhibition on the expression of N-cadherin in human liver adenocarcinoma cells (SK-HEP-1) by the polypeptide or derivative thereof (N1-N12) was as described in Example 19.

## N1: polypeptide with the amino acid sequence set forth in SEQ ID NO: 1 (YRVRFLAKENVTQDAEDN)
  Relative protein level (mean ± SD, P), N-cadherin: 0.83 ± 0.04,***

## N2: SEQ ID NO: 1 with deletion of one amino acid (position 18) at the carboxyl terminal (YRVRFLAKENVTQDAED)
  Relative protein level (mean ± SD, P), N-cadherin: 0.93 ± 0.04,**

## N3: SEQ ID NO: 1 with deletion of position 18 and PEG modification at the amino terminal ({PEG}-YRVRFLAKENVTQDAED; reading uncertain)
  Relative protein level (mean ± SD, P), N-cadherin: 0.87 ± 0.09,*

## N4: SEQ ID NO: 1 with deletion of positions 15-18 and positions 1-3 (RFLAKENVTQD)
  Relative protein level (mean ± SD, P), N-cadherin: 0.93 ± 0.04,**

## N5: SEQ ID NO: 1 with addition of one amino acid at the carboxyl terminal and deletion of positions 1-3 (RFLAKENVTQDAEDNC)
  Relative protein level (mean ± SD, P), N-cadherin: 0.83 ± 0.04,***

## N6: SEQ ID NO: 1 with deletion of four amino acids at the carboxyl terminal (positions 15-18) (YRVRFLAKENVTQD)
  Relative protein level (mean ± SD, P), N-cadherin: 0.83 ± 0.04,***

## N7: SEQ ID NO: 1 with addition of one amino acid at the carboxyl terminal and substitution A15R (YRVRFLAKENVTQDREDNC)
  Relative protein level (mean ± SD, P), N-cadherin: 0.73 ± 0.06,***

## N8: SEQ ID NO: 1 with deletion of positions 15-18 and positions 3, 4 and 11 (YRFLAKENTQD)
  Relative protein level (mean ± SD, P), N-cadherin: 0.7 ± 0.06,***

## N9: SEQ ID NO: 1 with deletion of positions 15-18 and PEG modification at the amino terminal ({PEG}-YRVRFLAKENVTQD; reading uncertain)
  Relative protein level (mean ± SD, P), N-cadherin: 0.73 ± 0.04,***

## N10: SEQ ID NO: 1 with deletion of positions 15-18 and 1-3 and PEG modification at the carboxyl terminal (RFLAKENVTQD-{PEG}; reading uncertain)
  Relative protein level (mean ± SD, P), N-cadherin: 0.69 ± 0.03,****

## N11: SEQ ID NO: 1 with deletion of positions 15-18 and 1-3 and PEG modification at the amino terminal ({PEG}-RFLAKENVTQD; reading uncertain)
  Relative protein level (mean ± SD, P), N-cadherin: 0.73 ± 0.04,***

## N12: SEQ ID NO: 1 with deletion of position 18 and positions 1-2 (VRFLAKENVTQDAED)
  Relative protein level (mean ± SD, P), N-cadherin: 0.58 ± 0.03,***
